How the values were obtained:
Cathepsin K [1] = target: T1, Cathepsin K (Homo sapiens, UniProt P43235); experiment: In vitro inhibitory activity against human cathepsin K, using 2 uM of Z -Leu-Arg-AMC as substrate
T1 sequence (P43235 whole entry): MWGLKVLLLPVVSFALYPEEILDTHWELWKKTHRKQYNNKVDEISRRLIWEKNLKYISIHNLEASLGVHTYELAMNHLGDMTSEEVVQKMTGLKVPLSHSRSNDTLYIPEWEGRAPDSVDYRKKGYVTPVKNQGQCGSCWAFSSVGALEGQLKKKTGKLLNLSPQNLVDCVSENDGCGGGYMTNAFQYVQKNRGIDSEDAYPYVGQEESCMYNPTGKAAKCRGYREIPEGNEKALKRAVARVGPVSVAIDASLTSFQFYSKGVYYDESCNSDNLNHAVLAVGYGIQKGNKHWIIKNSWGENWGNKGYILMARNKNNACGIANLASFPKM

Cathepsin B = Cathepsin B (Homo sapiens, UniProt P07858); experiment: In vitro inhibitory activity against human cathepsin B, using 2 uM of Z -Leu-Arg-AMC as substrate
Procathepsin L = Procathepsin L (Homo sapiens, UniProt P07711); experiment: In vitro inhibitory activity against human cathepsin L, using 2 uM of Z -Leu-Arg-AMC as substrate
Procathepsin L, sequence (P07711 whole entry): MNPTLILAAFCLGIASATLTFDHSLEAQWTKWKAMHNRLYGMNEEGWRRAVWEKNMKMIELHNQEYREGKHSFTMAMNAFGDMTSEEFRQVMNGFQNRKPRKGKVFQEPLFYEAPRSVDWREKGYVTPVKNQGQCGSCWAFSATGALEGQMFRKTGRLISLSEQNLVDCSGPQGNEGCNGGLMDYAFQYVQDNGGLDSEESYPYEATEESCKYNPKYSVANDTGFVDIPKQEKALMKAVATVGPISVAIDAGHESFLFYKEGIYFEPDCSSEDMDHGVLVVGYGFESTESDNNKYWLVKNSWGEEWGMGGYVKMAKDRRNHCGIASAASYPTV

Cathepsin S = Cathepsin S (Homo sapiens, UniProt P25774); experiment: In vitro inhibitory activity against human cathepsin S, using 2 uM of Z -Leu-Arg-AMC as substrate
Cathepsin S, sequence (P25774 whole entry): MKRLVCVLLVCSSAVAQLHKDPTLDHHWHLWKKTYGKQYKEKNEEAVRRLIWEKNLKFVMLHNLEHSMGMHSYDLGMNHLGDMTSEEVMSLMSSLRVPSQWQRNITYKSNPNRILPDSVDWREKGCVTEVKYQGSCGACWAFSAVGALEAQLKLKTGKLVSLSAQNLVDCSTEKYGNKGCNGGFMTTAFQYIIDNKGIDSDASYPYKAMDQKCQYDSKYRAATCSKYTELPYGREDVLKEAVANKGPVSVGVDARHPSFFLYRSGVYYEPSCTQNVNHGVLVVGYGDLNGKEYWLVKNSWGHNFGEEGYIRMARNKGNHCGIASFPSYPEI

Bos taurus = species: Bos taurus; experiment: cells
Description: In vitro Bone resorption; measuring degradation of bovine bone by isolated osteoclasts

[2] = target: T2, Cathepsin K (Homo sapiens) (UniProt P43235); experiment: Pre steady state kinetic parameter K off was determined
T2 sequence (whole entry): T1 sequence (P43235 whole entry)

Cathepsin K [3] = target: T1, Cathepsin K; experiment: In vitro inhibitory activity against Human Cathepsin K using 2 uM of Z -Leu-Arg-AMC as substrate

Structure (SMILES)	IC50 (Cathepsin K [1]) [nM]	IC50 (Cathepsin B) [nM]	IC50 (Procathepsin L) [nM]	IC50 (Cathepsin S) [nM]	IC50 (Bos taurus) [nM]	k off [2] [s⁻¹]	Ki (Cathepsin K [3]) [nM]
CC(C)CC(C(=O)NCC#N)c1cccc(-c2ccc(C34CCN(CC3)CC4)cc2)c1 (centres undefined)	37	2230	2240	1990	198		
CC(C)CC(C(=O)NCC#N)c1cccc(-c2ccccn2)c1 (centres undefined)	488	> 10000	5580	> 10000			
CC(C)CC(C(=O)NCC#N)c1cccc(-c2ccc(N3CCN(CC(C)(C)N)CC3)cc2)c1 (centres undefined)	16	> 10000	> 10000	1430	552		
CC(C)CC(C(=O)NCC#N)c1cccc(-c2ccc(N3CCOCC3)cc2)c1 (centres undefined)	638	1740	1590	9420			
CC(C)CC(C(=O)NCC#N)c1cccc(-c2cccnc2)c1 (centres undefined)	803	> 10000	5950	8040			
CC(C)CC(C(=O)NCC#N)c1cccc(-c2ccc(C3=CCNCC3)cc2)c1 (centres undefined)	57	554	1680	652	267		
CC(C)CC(C(=O)NCC#N)c1cccc(-c2ccc(C(N)=O)cc2)c1 (centres undefined)	1020	> 10000	> 10000	1370			
CC(C)CC(C(=O)NCC#N)c1cccc(-c2ccc(S(C)(=O)=O)cc2)c1 (centres undefined)	1230	> 10000	> 10000	6620			
CC(C)CC(C(=O)NCC#N)c1cccc(-c2ccc(C3CNCCN3)cc2)c1 (stereo in doubt; 43)	216	> 10000	> 10000	> 10000	4870		
CC(C)CC(C(=O)NCC#N)c1cccc(-c2ccc(N3CCN(C(=O)OC(C)(C)C)CC3)cc2)c1 (centres undefined)	922	> 10000	> 10000	1300			
CC(C)CC(C(=O)NCC#N)c1ccc(-c2ccccc2)cc1 (centres undefined)	790	> 10000	> 10000	3340			
CN1CCN(c2ccc(-c3cccc(C(Cc4ccccc4)C(=O)NCC#N)c3)cc2)CC1 (centres undefined)	1400	> 10000	3910	> 10000			
CC(C)CC(C(=O)NCC#N)c1cccc(-c2ccc(N3CCN(CC(C)(C)O)CC3)cc2)c1 (centres undefined)	6	6370	9550	> 10000	142		
CC(C)CC(C(=O)NCC#N)c1cccc(-c2ccc(C3CNCCO3)cc2)c1 (centres undefined)	614	> 10000	919	3370	2810		
CC(C)CC(C(=O)NCC#N)c1csc(-c2ccccc2)n1 (centres undefined)	1460	> 10000	> 10000	> 10000			
CN1CCN(c2ccc(-c3cccc(CC(=O)NCC#N)c3)cc2)CC1	> 10000	> 10000	> 10000	> 10000			
CC(C)CC(C(=O)N(CC#N)OC(=O)C(F)(F)F)c1cccc(-c2ccncc2)c1 (centres undefined)	150	> 10000	5780	1750			
CC(C)CC(C(=O)NCC#N)c1cccc(-c2ccc3cc[nH]c3c2)c1 (centres undefined)	291	> 10000		1260	2780		
CC(C)CC(C(=O)NCC#N)c1cccc(-c2cncnc2)c1 (centres undefined)	1040	> 10000	> 10000	> 10000			

Next, values leading:

IC50 (Cathepsin K [1]) [nM]	IC50 (Cathepsin B) [nM]	IC50 (Procathepsin L) [nM]	IC50 (Cathepsin S) [nM]	IC50 (Bos taurus) [nM]	k off [2] [s⁻¹]	Ki (Cathepsin K [3]) [nM]	Structure (SMILES)
56	> 10000	498	1580	3560			CC(C)CC(C(=O)NCC#N)c1cccc(-c2ccccc2)c1 (centres undefined)
51	1900		41				CC(C)CC(NC(=O)c1ccccc1)C(=O)NCC#N (centres undefined)
10	550	2160	2360	121			CC(=O)CN1CCN(c2ccc(-c3cccc(C(CC(C)C)C(=O)NCC#N)c3)cc2)CC1 (centres undefined)
8	3840	4640	1690	78			CC(C)CC(C(=O)NCC#N)c1cccc(-c2ccc(N3CCN(C)CC3)cc2)c1 (racemic)
52	> 10000	> 10000	922	249			CC(C)CC(C(=O)NCC#N)c1cccc(-c2ccc3[nH]ccc3c2)c1 (racemic)
12	3340	140	609				CC(C)CC(C(=O)NCC#N)c1cccc(-c2ccc(N3CCN(CCO)CC3)cc2)c1 (centres undefined)
6	2600	6270	3930	96			CC(C)C[C@@H](C(=O)NCC#N)c1cccc(-c2ccc(N3CCN(C)CC3)cc2)c1
3	3950	3720	2010	95			CC(C)C[C@@H](C(=O)NCC#N)c1cccc(-c2ccc(N3CCNCC3)cc2)c1
3					0.0014	10	CC(C)CC(C(=O)NC1(C#N)CC1)c1cccc(-c2ccc(N3CCNCC3)cc2)c1 (centres undefined)
79							CC(C)C[C@H](C(=O)NCC#N)c1cccc(-c2ccc3[nH]ccc3c2)c1
51	5790	> 10000	> 10000				CC[C@H](C)CC(C(=O)NCC#N)c1cccc(-c2ccc(N3CCN(C)CC3)cc2)c1 (some centres undefined)
65	3430	> 10000	6600				CN1CCN(c2ccc(-c3cccc(C(CC4CC4)C(=O)NCC#N)c3)cc2)CC1 (centres undefined)
87	> 10000	> 10000	> 10000				CCCC(C(=O)NCC#N)c1cccc(-c2ccc(N3CCN(C)CC3)cc2)c1 (centres undefined)
18	1080	2750	1420	489			CC(C)CC(C(=O)NCC#N)c1cccc(-c2ccc(C3CCNCC3)cc2)c1 (centres undefined)
62	8050	> 10000	2310				CN1CCN(c2ccc(-c3cccc(C(CC4CCC4)C(=O)NCC#N)c3)cc2)CC1 (centres undefined)
142	> 10000	825	> 10000	1400			CC(C)CC(C(=O)NCC#N)c1cncc(-c2ccccc2)c1 (centres undefined)
97	3330	8390	1360	1240			CC(C)CC(C(=O)NCC#N)c1cccc(-c2ccc(-c3ccncc3)cc2)c1 (centres undefined)
9	2410	4800	1240	162			CC(C)CC(C(=O)NCC#N)c1cccc(-c2ccc(N3CCNCC3)cc2)c1 (racemic)
58	1250	338	521				CC(C)CC(C(=O)NCC#N)c1cccc(-c2ccc(C3CNCCN3)cc2)c1 (stereo in doubt; 44)
8							CC(C)C[C@@H](C(=O)NCC#N)c1cccc(-c2ccc3[nH]ccc3c2)c1
20	379	1670	8340	340			CC(C)CC(C(=O)NCC#N)c1cccc(-c2ccc(N3CCN(C(C)(C)C)CC3)cc2)c1 (centres undefined)

Source: ChEMBL document CHEMBL1145055, “A novel class of nonpeptidic biaryl inhibitors of human cathepsin K” (J Med Chem, 2003)
